According to patent US20060148799A1, “Substituted p-phenyl carbamates” (Novo Nordisk A/S, priority 2003, published 2006):

The compounds below were run against T1, Hormone-sensitive lipase (HSL) (Homo sapiens, UniProt Q05469) (assay: 3190.1: percent inhibition of hormone sensitive lipase at 10 μM (fluorochrome-labeled triacylglyceride emulsion)). Details: % activity relative to non-inhibited sample; 10 μM sample concentration; 30 min pre-incubation at 25° C., 120 min incubation at 37° C.; read-out: 3190.1 HSL_FL % ACTIVITY (%).
T1 construct: made in house
T1 sequence (Q05469 1-1076): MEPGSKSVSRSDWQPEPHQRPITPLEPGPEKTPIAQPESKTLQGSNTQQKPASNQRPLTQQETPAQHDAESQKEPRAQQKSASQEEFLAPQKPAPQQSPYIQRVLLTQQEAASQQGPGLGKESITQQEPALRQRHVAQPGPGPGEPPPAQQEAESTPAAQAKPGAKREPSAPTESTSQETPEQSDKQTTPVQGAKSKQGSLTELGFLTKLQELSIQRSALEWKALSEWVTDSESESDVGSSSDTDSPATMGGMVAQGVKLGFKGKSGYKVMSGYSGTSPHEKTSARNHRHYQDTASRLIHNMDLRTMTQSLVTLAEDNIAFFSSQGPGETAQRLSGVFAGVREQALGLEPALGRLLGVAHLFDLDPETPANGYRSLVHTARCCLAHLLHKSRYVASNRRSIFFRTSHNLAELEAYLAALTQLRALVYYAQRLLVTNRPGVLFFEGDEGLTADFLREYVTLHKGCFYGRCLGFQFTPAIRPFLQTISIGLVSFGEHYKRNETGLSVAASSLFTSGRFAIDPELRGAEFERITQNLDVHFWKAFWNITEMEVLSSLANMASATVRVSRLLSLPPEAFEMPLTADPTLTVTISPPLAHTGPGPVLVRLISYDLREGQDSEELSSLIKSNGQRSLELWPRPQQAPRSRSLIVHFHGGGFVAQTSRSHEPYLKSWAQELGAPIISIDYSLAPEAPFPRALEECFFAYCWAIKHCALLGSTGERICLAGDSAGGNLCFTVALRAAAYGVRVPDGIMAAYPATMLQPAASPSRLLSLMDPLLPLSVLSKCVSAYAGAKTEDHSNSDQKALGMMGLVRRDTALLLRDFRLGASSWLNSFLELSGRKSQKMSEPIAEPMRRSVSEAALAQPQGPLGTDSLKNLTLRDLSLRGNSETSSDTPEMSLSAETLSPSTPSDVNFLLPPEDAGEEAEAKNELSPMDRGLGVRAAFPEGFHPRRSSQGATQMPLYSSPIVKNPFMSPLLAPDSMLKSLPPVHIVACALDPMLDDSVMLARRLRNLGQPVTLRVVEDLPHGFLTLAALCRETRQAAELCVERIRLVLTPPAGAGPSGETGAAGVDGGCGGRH
Assay type: biochemical
Excerpt: Materials. The Hormone-sensitive lipase was provided by Dr. Cecilia Holm, from Lund University Sweden or produced and purified by Novo Nordisk (NN) using the reagents and protocols used by Dr. Holm. The substrates used are: ^3H-labeled triolein (TO) from Amersham, Buckinghamshire, U.K. cat No. TRA191; 5-20 Ci/mmol dissolved in toluene, triolein (Sigma, Cat. No. T-1740), fluorochrome-labeled triacylglyceride (cis-octadec-9-enoic acid 2-[12-(7-nitrobenzo[1,2,5]oxadiazol-4-ylamino)dodecanoyloxy]-1-cis-octadec-9-enoyloxymethyl-ethyl ester) prepared by Novo Nordisk (NN) by conventional methods, and 1,3-(di[^3H]-stearin), 2-(PEG-Biotin)glycerol prepared in collaboration with Amersham Pharmacia Biotech, UK and described in WO 01/073442. Phosphatidyl choline (PC) and phosphatidyl inositol (PI) are from Sigma (St Luis Mo. cat. Nos. P-3556 and P-5954 respectively). All other reagents are of commercial grade and obtained from various commercial sources.
3190.1: Assay for determination of percent inhibition of hormone sensitive lipase by compound at 10 μM sample concentration.
A lipid emulsion with fluorochrome-labeled triacylglyceride and phospholipid is used as substrate with a standard concentration of highly purified HSL (12 μg/mL initial concentration corresponding to 600 ng/mL final concentration). BSA is added as product acceptor. The transfer of the fluorochrome from the lipid phase to the water (BSA) phase changes the fluorescent properties of the fluorochrome. The changes can be monitored on a fluorimeter with an excitation wavelength of 450 nm and an emission wavelength of 545 nm.
Compound and HSL (20 μL compound, 10 μL enzyme and 70 μL PED-BSA buffer) is pre-incubated for 30 min at 25° C. before addition of substrate (100 μL). Amount of formed product is measured after 120 min incubation at 37° C.
Results are given as percent activity relative to a non-inhibited sample (no compound).

| SMILES | activity at 10 µM |
| --- | --- |
| CN(C(=O)Oc1ccc(NC(=O)c2ccc(CN3CCCCC3)cc2)cc1)c1ccccc1 [Example 1, Methyl-phenyl-carbamic acid 4-(4-piperidin-1-ylmethyl-benzoylamino)-phenyl ester] | 4% |
| CN(C(=O)Oc1ccc(NC(=O)c2ccc(CN3CCOCC3)cc2)cc1)c1ccccc1 [Example 2, Methyl-phenyl-carbamic acid 4-(4-morpholin-4-ylmethyl-benzoylamino)-phenyl ester] | 4% |
| CC1CCN(Cc2ccc(C(=O)Nc3ccc(OC(=O)N(C)c4ccccc4)cc3)cc2)CC1 [Example 3, Methyl-phenyl-carbamic acid 4-[4-(4-methyl-piperidin-1-ylmethyl)-benzoylamino]-phenyl ester] | 2% |
